pIC50: −log10 of the molar value. Where two headings read alike, the source gives them in different places.
Experiments:
ABL2 [1] = target: T1, ABL2 (Homo sapiens, UniProt P42684); assay: Kinobeads two-dose competition binding: ABL2; settings: sheet CATDS matrix 2; Gene Name ABL2
T1 construct: endogenous in cells

ACOX1 = target: T2, ACOX1 (Homo sapiens, UniProt Q15067); assay: Kinobeads two-dose competition binding: ACOX1; settings: sheet CATDS matrix 2; Gene Name ACOX1;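 further: competition of compounds with immobilized broad-spectrum kinase inhibitor beads in cell lysate at 100 and 1,000 nM, 45 min at 4 °C, bead-bound protein quantified by label-free MS versus DMSO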
T2 construct: endogenous in cells
T2 sequence (Q15067 1-660): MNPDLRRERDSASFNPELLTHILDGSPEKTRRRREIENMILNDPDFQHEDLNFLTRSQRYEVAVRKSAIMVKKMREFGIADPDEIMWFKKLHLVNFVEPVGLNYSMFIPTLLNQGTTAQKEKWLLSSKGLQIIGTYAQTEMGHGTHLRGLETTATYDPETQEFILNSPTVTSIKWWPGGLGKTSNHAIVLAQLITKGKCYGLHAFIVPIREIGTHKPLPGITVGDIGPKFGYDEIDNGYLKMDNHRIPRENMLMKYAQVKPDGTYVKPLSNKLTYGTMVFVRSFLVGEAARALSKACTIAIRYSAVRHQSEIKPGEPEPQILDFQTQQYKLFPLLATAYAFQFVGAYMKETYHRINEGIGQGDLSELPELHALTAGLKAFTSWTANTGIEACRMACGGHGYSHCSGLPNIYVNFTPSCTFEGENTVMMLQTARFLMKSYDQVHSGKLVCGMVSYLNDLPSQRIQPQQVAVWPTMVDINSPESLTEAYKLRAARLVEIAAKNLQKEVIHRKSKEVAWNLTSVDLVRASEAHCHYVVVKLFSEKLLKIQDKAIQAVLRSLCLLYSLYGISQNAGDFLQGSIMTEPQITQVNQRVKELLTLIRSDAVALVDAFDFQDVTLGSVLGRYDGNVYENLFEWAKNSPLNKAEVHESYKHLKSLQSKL

ABL2 [2] = target: T1, ABL2; assay: Kinobeads two-dose competition binding: ABL2; settings: sheet "Kinobeads Drugmatrix - all"; unit inferred; read-out: Kinobeads Drugmatrix - all: apparent Kd, ABL2
AAK1 = target: T3, AAK1 (Homo sapiens, UniProt Q2M2I8); assay: Kinobeads two-dose competition binding: AAK1; settings: for CATDS: sheet CATDS matrix 2, Gene Name AAK1;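 on all read-outs here: kinobeads competition pulldown from cell lysate, compound preincubated 45 min at 4 °C, bead-bound protein measured by label-free mass spectrometry against DMSO vehicle control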
T3 construct: to maximize the representation of endogenous proteins; endogenous in cells
T3 sequence (Q2M2I8 whole entry): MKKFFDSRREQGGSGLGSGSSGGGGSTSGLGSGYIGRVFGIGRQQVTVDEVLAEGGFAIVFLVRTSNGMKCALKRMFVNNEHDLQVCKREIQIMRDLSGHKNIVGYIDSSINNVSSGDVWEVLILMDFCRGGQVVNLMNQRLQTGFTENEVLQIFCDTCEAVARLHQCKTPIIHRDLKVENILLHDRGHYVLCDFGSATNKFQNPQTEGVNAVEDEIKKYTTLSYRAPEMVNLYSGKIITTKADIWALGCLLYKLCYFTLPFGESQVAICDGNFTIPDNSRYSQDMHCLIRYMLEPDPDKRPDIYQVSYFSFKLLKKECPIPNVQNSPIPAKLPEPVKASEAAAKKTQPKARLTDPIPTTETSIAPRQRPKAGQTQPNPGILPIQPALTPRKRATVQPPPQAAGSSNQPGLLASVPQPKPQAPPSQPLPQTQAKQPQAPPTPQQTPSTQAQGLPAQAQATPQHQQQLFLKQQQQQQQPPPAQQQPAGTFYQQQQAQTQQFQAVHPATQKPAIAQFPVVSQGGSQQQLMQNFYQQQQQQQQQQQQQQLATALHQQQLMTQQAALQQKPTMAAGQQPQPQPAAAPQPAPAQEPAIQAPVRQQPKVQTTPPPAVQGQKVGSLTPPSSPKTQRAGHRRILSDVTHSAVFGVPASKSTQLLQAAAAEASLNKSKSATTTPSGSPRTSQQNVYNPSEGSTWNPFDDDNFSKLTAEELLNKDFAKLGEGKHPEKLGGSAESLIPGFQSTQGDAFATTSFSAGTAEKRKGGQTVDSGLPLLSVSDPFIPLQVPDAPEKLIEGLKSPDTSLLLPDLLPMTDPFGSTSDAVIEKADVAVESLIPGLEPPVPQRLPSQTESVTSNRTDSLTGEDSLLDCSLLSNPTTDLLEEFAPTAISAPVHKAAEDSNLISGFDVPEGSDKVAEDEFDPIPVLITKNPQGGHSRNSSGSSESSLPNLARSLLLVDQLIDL

ACAD11 = target: T4, ACAD11 (Homo sapiens, UniProt Q709F0); assay: Kinobeads two-dose competition binding: ACAD11; settings: sheet CATDS matrix 2; Gene Name ACAD11
T4 construct: endogenous in cells
T4 sequence (Q709F0 1-780): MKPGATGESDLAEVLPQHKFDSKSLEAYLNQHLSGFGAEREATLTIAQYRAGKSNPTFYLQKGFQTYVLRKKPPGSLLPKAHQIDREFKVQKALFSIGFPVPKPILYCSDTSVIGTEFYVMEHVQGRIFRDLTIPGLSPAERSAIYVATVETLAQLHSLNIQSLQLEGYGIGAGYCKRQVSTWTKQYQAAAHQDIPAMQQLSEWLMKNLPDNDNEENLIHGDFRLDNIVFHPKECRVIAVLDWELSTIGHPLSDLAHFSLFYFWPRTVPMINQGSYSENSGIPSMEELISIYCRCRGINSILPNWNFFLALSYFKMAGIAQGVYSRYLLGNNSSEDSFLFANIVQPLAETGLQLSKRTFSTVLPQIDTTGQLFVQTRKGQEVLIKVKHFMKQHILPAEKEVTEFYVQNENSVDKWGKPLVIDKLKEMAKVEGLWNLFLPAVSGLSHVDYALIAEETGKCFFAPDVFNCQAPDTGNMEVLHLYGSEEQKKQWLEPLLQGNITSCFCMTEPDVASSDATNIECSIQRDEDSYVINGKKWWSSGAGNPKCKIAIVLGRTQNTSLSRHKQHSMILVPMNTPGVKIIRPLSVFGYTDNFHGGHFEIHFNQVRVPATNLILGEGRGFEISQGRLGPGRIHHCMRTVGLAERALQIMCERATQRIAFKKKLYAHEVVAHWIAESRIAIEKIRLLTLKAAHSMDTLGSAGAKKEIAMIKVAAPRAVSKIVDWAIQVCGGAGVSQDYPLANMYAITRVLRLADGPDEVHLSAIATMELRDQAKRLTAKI

ABL1 [3] = target: T5, ABL1 (Homo sapiens, UniProt P00519); assay: Kinobeads two-dose competition binding: ABL1; settings: sheet CATDS matrix 2; Gene Name ABL1
T5 sequence (P00519 28-1130 limits assumed): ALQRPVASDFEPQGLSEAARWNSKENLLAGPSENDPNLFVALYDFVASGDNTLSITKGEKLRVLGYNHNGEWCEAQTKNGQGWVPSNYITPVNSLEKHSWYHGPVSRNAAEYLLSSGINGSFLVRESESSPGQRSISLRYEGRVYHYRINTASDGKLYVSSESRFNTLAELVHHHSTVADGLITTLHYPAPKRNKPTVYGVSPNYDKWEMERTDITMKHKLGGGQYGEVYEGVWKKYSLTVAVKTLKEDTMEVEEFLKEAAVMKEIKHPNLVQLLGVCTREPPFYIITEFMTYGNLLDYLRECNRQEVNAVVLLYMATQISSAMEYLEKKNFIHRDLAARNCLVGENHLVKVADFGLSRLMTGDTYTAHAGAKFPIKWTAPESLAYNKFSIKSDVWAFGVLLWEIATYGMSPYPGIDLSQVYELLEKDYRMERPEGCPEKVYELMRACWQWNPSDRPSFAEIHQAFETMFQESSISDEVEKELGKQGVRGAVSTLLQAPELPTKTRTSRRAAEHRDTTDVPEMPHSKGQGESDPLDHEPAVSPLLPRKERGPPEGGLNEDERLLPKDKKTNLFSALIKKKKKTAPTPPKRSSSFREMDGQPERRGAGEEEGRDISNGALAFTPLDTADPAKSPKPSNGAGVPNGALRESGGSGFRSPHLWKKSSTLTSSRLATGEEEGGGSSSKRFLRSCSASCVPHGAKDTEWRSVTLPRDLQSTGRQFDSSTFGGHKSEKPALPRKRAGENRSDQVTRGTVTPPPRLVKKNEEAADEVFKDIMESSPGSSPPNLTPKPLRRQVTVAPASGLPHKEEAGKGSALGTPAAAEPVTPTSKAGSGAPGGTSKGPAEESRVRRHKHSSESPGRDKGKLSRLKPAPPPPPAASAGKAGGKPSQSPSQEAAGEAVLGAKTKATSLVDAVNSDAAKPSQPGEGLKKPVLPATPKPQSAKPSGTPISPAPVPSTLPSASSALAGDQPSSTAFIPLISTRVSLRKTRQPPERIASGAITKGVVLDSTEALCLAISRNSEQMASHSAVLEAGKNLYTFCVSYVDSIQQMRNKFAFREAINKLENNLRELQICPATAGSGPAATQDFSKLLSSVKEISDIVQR

ABL1 [4] = target: T5, ABL1; assay: Kinobeads two-dose competition binding: ABL1; settings: sheet "Kinobeads Drugmatrix - all"; unit inferred; read-out: Kinobeads Drugmatrix - all: apparent Kd, ABL1
PKN3 = PKN3 (Homo sapiens, UniProt Q6P5Z2); assay: NanoBRET in-cell target engagement in HEK293T cells: PKN3; format: cell-based; set-up: full-length PKN3, CSNK2A1 or CSNK2A2 ORF; host or cells: HEK293T;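 further: Full-length PKN3 with C-terminal NanoLuc expressed in HEK293T cells, serial inhibitor dilutions competing against Kinase Tracer K5 at 500 nM, BRET read after 2 h at 37 °C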
Sequence of PKN3 (Q6P5Z2 whole entry): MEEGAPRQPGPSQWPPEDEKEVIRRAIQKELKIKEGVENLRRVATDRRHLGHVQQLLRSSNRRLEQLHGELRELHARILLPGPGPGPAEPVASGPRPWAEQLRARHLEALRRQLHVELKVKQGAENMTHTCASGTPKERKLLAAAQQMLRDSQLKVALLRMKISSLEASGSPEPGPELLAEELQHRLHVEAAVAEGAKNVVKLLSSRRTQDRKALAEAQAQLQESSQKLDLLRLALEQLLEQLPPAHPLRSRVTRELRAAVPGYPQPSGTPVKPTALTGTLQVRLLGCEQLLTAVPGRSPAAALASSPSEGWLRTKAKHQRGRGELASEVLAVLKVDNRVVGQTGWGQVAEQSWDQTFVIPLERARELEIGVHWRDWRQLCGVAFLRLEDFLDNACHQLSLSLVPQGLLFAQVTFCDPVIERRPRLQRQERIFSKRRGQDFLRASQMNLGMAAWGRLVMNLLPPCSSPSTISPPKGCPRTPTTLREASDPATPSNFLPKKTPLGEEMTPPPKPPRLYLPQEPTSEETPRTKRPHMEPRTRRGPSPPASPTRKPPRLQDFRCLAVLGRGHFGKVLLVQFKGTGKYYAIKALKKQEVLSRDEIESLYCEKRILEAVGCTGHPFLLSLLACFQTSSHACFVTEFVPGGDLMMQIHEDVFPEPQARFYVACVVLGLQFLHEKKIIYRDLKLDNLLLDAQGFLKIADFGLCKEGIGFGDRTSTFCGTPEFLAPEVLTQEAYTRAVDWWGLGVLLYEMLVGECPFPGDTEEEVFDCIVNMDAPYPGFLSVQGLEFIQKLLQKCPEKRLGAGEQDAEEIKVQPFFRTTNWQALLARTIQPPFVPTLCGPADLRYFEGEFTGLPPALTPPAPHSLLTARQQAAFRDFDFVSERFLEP

[5] = HEK293T cells, in-cell target engagement, read-out: IC50 PKN3 NanoBRET
[6] = average of replicates, read-out: Average of IC50 values NanoBRET PKN3
[7] = biological replicate number 1, read-out: Rep 1 IC50 NanoBRET PKN3
[8] = biological replicate number 2, read-out: Rep 2 IC50 NanoBRET PKN3
[9] = biological replicate number 3, read-out: Rep 3 IC50 NanoBRET PKN3
[10] = biological replicate number 4, read-out: Rep 4 IC50 NanoBRET PKN3

T1 sequence (P42684 whole entry): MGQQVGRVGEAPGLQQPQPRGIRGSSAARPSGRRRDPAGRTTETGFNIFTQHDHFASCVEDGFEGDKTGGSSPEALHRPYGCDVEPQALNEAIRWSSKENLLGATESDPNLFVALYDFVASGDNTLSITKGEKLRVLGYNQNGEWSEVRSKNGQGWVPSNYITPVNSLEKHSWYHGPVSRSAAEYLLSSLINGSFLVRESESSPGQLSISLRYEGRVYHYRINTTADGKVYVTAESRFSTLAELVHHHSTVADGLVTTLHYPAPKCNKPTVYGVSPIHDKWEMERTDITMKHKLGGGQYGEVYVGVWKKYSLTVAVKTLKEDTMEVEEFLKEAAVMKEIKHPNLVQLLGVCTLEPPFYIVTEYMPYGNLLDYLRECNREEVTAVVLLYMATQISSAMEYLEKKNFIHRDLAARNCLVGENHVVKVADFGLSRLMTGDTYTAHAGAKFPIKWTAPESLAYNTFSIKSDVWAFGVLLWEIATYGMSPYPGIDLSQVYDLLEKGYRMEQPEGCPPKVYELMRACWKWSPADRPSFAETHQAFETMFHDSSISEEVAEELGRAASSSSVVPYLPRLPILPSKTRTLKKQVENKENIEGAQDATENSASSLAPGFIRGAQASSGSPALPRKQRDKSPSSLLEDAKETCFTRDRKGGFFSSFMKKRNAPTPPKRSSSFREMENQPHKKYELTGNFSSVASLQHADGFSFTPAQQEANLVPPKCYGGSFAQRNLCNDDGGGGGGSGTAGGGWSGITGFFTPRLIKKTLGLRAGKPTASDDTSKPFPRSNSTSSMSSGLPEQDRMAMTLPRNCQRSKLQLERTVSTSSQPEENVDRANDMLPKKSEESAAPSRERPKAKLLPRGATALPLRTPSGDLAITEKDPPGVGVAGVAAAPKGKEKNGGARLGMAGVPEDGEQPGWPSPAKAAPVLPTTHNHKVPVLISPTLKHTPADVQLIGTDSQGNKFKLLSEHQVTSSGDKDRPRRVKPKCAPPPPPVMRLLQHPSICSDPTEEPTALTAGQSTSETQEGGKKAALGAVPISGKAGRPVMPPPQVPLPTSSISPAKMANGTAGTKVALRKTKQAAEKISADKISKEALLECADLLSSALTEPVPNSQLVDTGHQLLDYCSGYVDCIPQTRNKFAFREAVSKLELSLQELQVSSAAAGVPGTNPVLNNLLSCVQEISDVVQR

Row | Compound | CATDS (ABL2 [1]) | CATDS (ACOX1) | potency estimated from few doses (ABL2 [2]) | CATDS (AAK1) | CATDS (ACAD11) | CATDS (ABL1 [3]) | potency estimated from few doses (ABL1 [4]) | pIC50 (PKN3; [5]) | pIC50 (PKN3; [6]) | pIC50 (PKN3; [7]) | pIC50 (PKN3; [8]) | pIC50 (PKN3; [9]) | pIC50 (PKN3; [10]) | potency estimated from few doses (AAK1; read-out: Kinobeads Drugmatrix - all: apparent Kd, AAK1)
1 | CC(=O)N1CCN(c2ccc(Nc3nccc(-c4sc(C(C)C)nc4-c4cccc(NS(=O)(=O)c5cccc(Cl)c5)c4)n3)cn2)CC1 [GSK1660437A] | 0.07869 | 0 | 351 nM | 0 | 0 | 0 |  |  |  |  |  |  |  | 
2 | CC(C)c1nc(-c2cccc(NS(=O)(=O)c3c(F)cccc3F)c2)c(-c2ccnc(Nc3ccc(N4CCOCC4)nc3)n2)s1 [GSK1723980B] | 0.05939 | 0 | 61.3 nM | 0 | 0 | 0.0244 | 301 nM |  |  |  |  |  |  | 
3 | NC[C@@](O)(c1ccc(Cl)cc1)c1ccc(-c2cn[nH]c2)cc1 [AT-13148, reference compound] | 0 | 0 |  | 0 | 0 | 0 |  | 5.69 |  |  |  |  |  | 
4 | CC(C)c1nc(-c2ccc(F)c(NS(=O)(=O)c3c(F)cccc3F)c2)c(-c2ccnc(Nc3ccc(N4CCOCC4)nc3)n2)s1 [GSK1804250A] | 0.1009 | 0 | 126 nM | 0 | 0 | 0.03302 | 970 nM |  |  |  |  |  |  | 
5 | CC(=O)N1CCN(c2ccc(Nc3nccc(-c4sc(C(C)C)nc4-c4cccc(NS(=O)(=O)c5ccccc5)c4)n3)cn2)CC1 [GSK1645872A] | 0.06803 | 0 | 166 nM | 0 | 0 | 0.02989 | 746 nM |  |  |  |  |  |  | 
6 | CCn1c(-c2nonc2N)nc2c(C#CC(C)(C)O)nc(CN3CCCC3)cc21 [GSK1000163A] | 0 | 0 |  | 0 | 0 | 0 |  | 4.96 | 5.16 | 4.95 | 5.04 | 5.21 | 5.84 | 
7 | COc1cccc2c(-c3ccncc3)c(-c3ccc(F)cc3)nn12 [GW468513X] |  |  |  |  |  |  |  |  | 6.04 | 5.68 | 6.26 |  | 7.13 | 
8 | ON=C1CCc2cc(-c3nc(C4CCNCC4)[nH]c3-c3ccncc3)ccc21 [SB-614067-R] |  |  |  |  |  |  |  |  | 4.64 | 4.72 | 4.69 | 4.30 | 5.74 | 
9 | CNC(=O)c1ccccc1Nc1nc(Nc2ccc(N3CCOCC3)cc2)ncc1Cl [GSK1576028A] | 0 | 0 |  | 0.02054 | 0 | 0 | > 1000 nM |  |  |  |  |  |  | 142 nM
10 | Cc1cccc(-c2nc(Nc3ccncc3)c3sccc3n2)n1 [GW869641X] |  |  |  |  |  |  |  | 5.39 | 5.80 | 5.38 | 6.33 |  | 7.06 | 
11 | Fc1ccc(-c2c(-c3ccncc3)[nH]c3cccnc23)cc1 [RO1153853-000] |  |  |  |  |  |  |  | 5.10 | 5.63 | 5.10 | 6.02 | 6.79 | 6.53 | 
12 | CCn1c(-c2nonc2N)nc2c(C#CC(C)(C)O)nc(OC[C@@H](N)c3ccccc3)cc21 [GSK938890A] |  |  |  |  |  |  |  |  | 7.01 | 6.51 | 7.51 | 7.55 | 7.65 | 
13 | COc1cc2nccc(Nc3ccc(Oc4ccccc4)cc3)c2cc1OC [GI261656A] | 0 | 0 |  | 0 | 0 | 0.04923 | 661 nM |  |  |  |  |  |  | 
14 | COc1cc2ncn(-c3cc(OCCCc4ccccc4)c(C(N)=O)s3)c2cc1OC [GSK205189A] | 0.03238 | 0 | 956 nM | 0 | 0 | 0 |  |  |  |  |  |  |  | 

Source: article PMC11062922 (Nature Chemical Biology, 2023)
